Reference: patent US20200054633A1 (priority 2017, published 2020)
Like-named read-outs stand apart in the source and are kept apart here.

Details: OST placebo, N=74
Source text: This study followed a randomized, double-blind, placebo-controlled, parallel-group, multicenter design.
Analysis set for safety: Safety Set included all subjects who received at least 1 dose of study drug.

O=C(O)[C@H]1C2CCC(CC2)[C@@H]1Nc1nc(-c2c[nH]c3ncc(F)cc23)ncc1F [Compound (1), Pimodivir]
32: Any TEAE (300 mg)
5 n (%): TEAE: Diarrhoea (300 mg) | TEAE: Infections and infestations (300 mg)
0 n (%): TEAE: Abdominal discomfort (300 mg) | TEAE: Abdominal pain (300 mg) | TEAE: Abdominal pain upper (300 mg) | TEAE: Abdominal tenderness (300 mg) | TEAE: Anaemia (300 mg) | TEAE: Aphthous stomatitis (300 mg) | TEAE: Atrioventricular block first degree (300 mg) | TEAE: Bacterial vaginosis (300 mg) | TEAE: Balance disorder (300 mg) | TEAE: Blood bicarbonate decreased (300 mg) | TEAE: Blood bilirubin decreased (300 mg) | TEAE: Blood potassium increased (300 mg) | TEAE: Blood pressure diastolic increased (300 mg) | TEAE: Bradycardia (300 mg) | TEAE: Constipation (300 mg) | TEAE: Contusion (300 mg) | TEAE: Cough (300 mg) | TEAE: Decreased appetite (300 mg) | TEAE: Dehydration (300 mg) | TEAE: Dizziness (300 mg) | TEAE: Dry mouth (300 mg) | TEAE: Dry skin (300 mg) | TEAE: Dysgeusia (300 mg) | TEAE: Dysuria (300 mg) | TEAE: Ear and labyrinth disorders (300 mg) | TEAE: Ear discomfort (300 mg) | TEAE: Ecchymosis (300 mg) | TEAE: Electrocardiogram ST segment depression (300 mg) | TEAE: Enteritis (300 mg) | TEAE: Fungal infection (300 mg) | TEAE: Gamma-glutamyltransferase increased (300 mg) | TEAE: HIV antibody positive (300 mg) | TEAE: HIV test positive (300 mg) | TEAE: Haemoglobin increased (300 mg) | TEAE: Hepatic enzyme increased (300 mg) | TEAE: Herpes simplex (300 mg) | TEAE: Hyperglycaemia (300 mg) | TEAE: Hyperhidrosis (300 mg) | TEAE: Hyperkalaemia (300 mg) | TEAE: Hypertension (300 mg) | TEAE: Hyperuricaemia (300 mg) | TEAE: Hypokalaemia (300 mg) | TEAE: Increased appetite (300 mg) | TEAE: Injury, poisoning and procedural complications (300 mg) | TEAE: Irritability (300 mg) | TEAE: Labyrinthitis (300 mg) | TEAE: Leukopenia (300 mg) | TEAE: Lymphopenia (300 mg) | TEAE: Micturition urgency (300 mg) | TEAE: Middle ear effusion (300 mg) | TEAE: Migraine (300 mg) | TEAE: Muscle spasms (300 mg) | TEAE: Myalgia (300 mg) | TEAE: Myocarditis (300 mg) | TEAE: Nasal congestion (300 mg) | TEAE: Nephropathy (300 mg) | TEAE: Neutropenia (300 mg) | TEAE: Oedema peripheral (300 mg) | TEAE: Oral herpes (300 mg) | TEAE: Otitis media (300 mg) | TEAE: Petechiae (300 mg) | TEAE: Pharyngitis streptococcal (300 mg) | TEAE: Pneumonia chlamydial (300 mg) | TEAE: Protein urine present (300 mg) | TEAE: Pruritus (300 mg) | TEAE: Rash (300 mg) | TEAE: Sensation of foreign body (300 mg) | TEAE: Sinus bradycardia (300 mg) | TEAE: Sinus congestion (300 mg) | TEAE: Skin and subcutaneous tissue disorders (300 mg) | TEAE: Sleep disorder (300 mg) | TEAE: Tachycardia (300 mg) | TEAE: Tinnitus (300 mg) | TEAE: Tremor (300 mg) | TEAE: Upper respiratory tract infection (300 mg) | TEAE: Urinary tract infection (300 mg) | TEAE: Vascular disorders (300 mg) | TEAE: Vertigo (300 mg) | TEAE: White blood cell count decreased (300 mg)
4 n (%): TEAE: Glomerular filtration rate decreased (300 mg) | TEAE: Metabolism and nutrition disorders (300 mg) | TEAE: Nervous system disorders (300 mg)
5 (6.8%): Any Severe (Grade 3) TEAE (600 mg)
1 n (%): TEAE: Alanine aminotransferase increased (300 mg) | TEAE: Aspartate aminotransferase increased (300 mg) | TEAE: Back pain (300 mg) | TEAE: Blood bilirubin increased (300 mg) | TEAE: Blood creatinine increased (300 mg) | TEAE: Blood glucose increased (300 mg) | TEAE: Blood urine (300 mg) | TEAE: Bronchitis (300 mg) | TEAE: Cardiac disorders (300 mg) | TEAE: Diabetes mellitus (300 mg) | TEAE: Dyspepsia (300 mg) | TEAE: Dyspnoea (300 mg) | TEAE: Fatigue (300 mg) | TEAE: Gout (300 mg) | TEAE: Haematuria (300 mg) | TEAE: Hepatitis C (300 mg) | TEAE: Hyperproteinaemia (300 mg) | TEAE: Hyponatraemia (300 mg) | TEAE: Hypothermia (300 mg) | TEAE: Lymph node pain (300 mg) | TEAE: Lymphadenopathy (300 mg) | TEAE: Musculoskeletal chest pain (300 mg) | TEAE: Neutrophil count decreased (300 mg) | TEAE: Paraesthesia (300 mg) | TEAE: Percussion test abnormal (300 mg) | TEAE: Protein urine (300 mg) | TEAE: Red blood cells urine (300 mg) | TEAE: Renal failure (300 mg) | TEAE: Renal failure chronic (300 mg) | TEAE: Renal impairment (300 mg) | TEAE: Respiratory, thoracic and mediastinal disorders (300 mg) | TEAE: Rhonchi (300 mg) | TEAE: Sinus tachycardia (300 mg) | TEAE: Sleep terror (300 mg) | TEAE: Syncope (300 mg) | TEAE: Thrombocytopenia (300 mg) | TEAE: Tongue discolouration (300 mg) | TEAE: Urine ketone body present (300 mg) | TEAE: Vomiting (300 mg) | TEAE: Wheezing (300 mg)
32 n (%): TEAE: All events (300 mg)
8 n (%): TEAE: Investigations (300 mg)
30: Worst grade 1 or 2 TEAE (300 mg)
1 (1.4%): Grade 3 TEAE: Bronchitis (300 mg) | Grade 3 TEAE: Fatigue (300 mg) | Grade 3 TEAE: General disorders and administration site conditions (300 mg) | Grade 3 TEAE: Infections and infestations (300 mg) | Grade 3 TEAE: Nervous system disorders (300 mg) | Grade 3 TEAE: Syncope (300 mg) | Any Serious TEAE (600 mg)
2: Any TEAE leading to a temporary stop of study medication (300 mg) | Worst grade 3 TEAE (300 mg) | Worst grade 3 or 4 TEAE (300 mg)
6 n (%): TEAE: Renal and urinary disorders (300 mg)
2 n (%): TEAE: Blood creatine phosphokinase increased (300 mg) | TEAE: General disorders and administration site conditions (300 mg) | TEAE: Haemoglobin decreased (300 mg) | TEAE: Headache (300 mg) | TEAE: Hypophosphataemia (300 mg) | TEAE: Insomnia (300 mg) | TEAE: Musculoskeletal and connective tissue disorders (300 mg)
10 n (%): TEAE: Gastrointestinal disorders (300 mg)
3 n (%): TEAE: Blood and lymphatic system disorders (300 mg) | TEAE: Nausea (300 mg) | TEAE: Proteinuria (300 mg) | TEAE: Psychiatric disorders (300 mg) | TEAE: Sinusitis (300 mg)
0: Any Serious TEAE (300 mg) | Any Serious TEAE at least possibly related to study medication (300 mg) | Any TEAE with fatal outcome (300 mg) | Grade 3 TEAE: Anaemia (300 mg) | Grade 3 TEAE: Balance disorder (300 mg) | Grade 3 TEAE: Blood and lymphatic system disorders (300 mg) | Grade 3 TEAE: Blood creatine phosphokinase increased (300 mg) | Grade 3 TEAE: Constipation (300 mg) | Grade 3 TEAE: Diarrhoea (300 mg) | Grade 3 TEAE: Gastrointestinal disorders (300 mg) | Grade 3 TEAE: Hyperkalaemia (300 mg) | Grade 3 TEAE: Investigations (300 mg) | Grade 3 TEAE: Lymphopenia (300 mg) | Grade 3 TEAE: Metabolism and nutrition disorders (300 mg) | Grade 3 TEAE: Nausea (300 mg) | Grade 3 TEAE: Neutropenia (300 mg) | Grade 3 TEAE: Neutrophil count decreased (300 mg) | Grade 3 TEAE: Protein urine present (300 mg) | Grade 3 TEAE: Thrombocytopenia (300 mg) | Grade 3 TEAE: Vomiting (300 mg) | Worst grade 4 TEAE (300 mg) | Any Serious TEAE at least possibly related to study medication (600 mg)
9: Any TEAE at least possibly related to study medication (300 mg)
7: Any TEAE leading to permanent stop of study medication (300 mg)
2 (2.7%): Any Severe (Grade 3) TEAE (300 mg)
